US7335632B2, “Beta-secretase inhibitors and methods of use thereof” (CoMentis, Inc., priority 2001, dated 2008)

How the values were obtained:
memapsin 1 = target: T1, memapsin 1 (Homo sapiens, UniProt Q9Y5Z0); experiment: Inhibition of memapsin 1 beta-secretase activity (substrate peptide […], MALDI-TOF); assay type: biochemical; conditions: pH 4.1, 37 degrees C., substrate NH3-ELDLAVEFWHDR-CO2, MALDI-TOF; read-out: M1 Ki
T1 sequence (Q9Y5Z0 63-518): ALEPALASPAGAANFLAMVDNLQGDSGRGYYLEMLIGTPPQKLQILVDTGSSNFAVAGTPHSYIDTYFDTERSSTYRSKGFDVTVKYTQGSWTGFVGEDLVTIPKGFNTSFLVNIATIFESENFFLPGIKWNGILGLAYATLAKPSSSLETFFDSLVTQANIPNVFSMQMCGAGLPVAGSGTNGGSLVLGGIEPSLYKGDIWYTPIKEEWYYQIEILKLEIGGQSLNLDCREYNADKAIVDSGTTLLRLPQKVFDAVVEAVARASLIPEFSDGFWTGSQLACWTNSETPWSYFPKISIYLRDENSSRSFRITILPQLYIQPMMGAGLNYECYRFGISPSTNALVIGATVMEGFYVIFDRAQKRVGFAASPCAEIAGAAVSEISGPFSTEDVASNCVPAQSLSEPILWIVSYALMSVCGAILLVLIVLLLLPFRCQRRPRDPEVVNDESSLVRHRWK

Cathepsin D = Cathepsin D (Homo sapiens, UniProt P07339); experiment: Inhibition of cathepsin D activity (substrate peptide […], MALDI-TOF); assay type: biochemical; conditions: pH 4.1, 37 degrees C., substrate NH3-[…]-CO2, MALDI-TOF; read-out: Cath D Ki
Aβ production = experiment: Cellular Aβ IC50 determination (Aβ40 sandwich ELISA); assay type: cell-based; conditions: Cricetulus griseus, Chinese hamster ovary cells over-expressing human APP695 with London and Swedish mutations, 24 h
Description: The potency of compounds against memapsin 2 activity was determined in a cellular assay of Aβ production. […] Chinese hamster ovary cells that over-express human APP695 with the London and Swedish mutations were seeded in multi-well plates at 10% confluency. Compounds were dissolved in DMSO to concentrations near 1 mM, and diluted into culture media to a final concentration near 4 μM (final 0.4% DMSO). Compounds were diluted serially and applied to cells in multi-well plates 48 h after seeding. Incubation was continued in 5% CO2 at 37 degrees C. for 24 h. Aliquots were removed and assayed for Aβ40 content using a sandwich ELISA (BioSource International). Amount of Aβ40 over the range of concentration of compounds, relative to control incubations, were fit to a 4-parameter IC50 model.

memapsin 2 = memapsin 2 (Homo sapiens, UniProt P56817); experiment: Inhibition of memapsin 2 beta-secretase activity toward fluorogenic substrate FS-2; assay type: biochemical; conditions: pH 4, 37° C., 20 minutes pre-incubation, substrate FS-2, tight-binding model; read-out: M2 Ki
How it was run: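 Enzyme pre-incubated with compound 20 min at pH 4, 37 °C, then fluorogenic substrate FS-2 added. Inhibition derived from rate of fluorescence increase from peptide hydrolysis.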

Chain of memapsin 2 (P56817 46-501): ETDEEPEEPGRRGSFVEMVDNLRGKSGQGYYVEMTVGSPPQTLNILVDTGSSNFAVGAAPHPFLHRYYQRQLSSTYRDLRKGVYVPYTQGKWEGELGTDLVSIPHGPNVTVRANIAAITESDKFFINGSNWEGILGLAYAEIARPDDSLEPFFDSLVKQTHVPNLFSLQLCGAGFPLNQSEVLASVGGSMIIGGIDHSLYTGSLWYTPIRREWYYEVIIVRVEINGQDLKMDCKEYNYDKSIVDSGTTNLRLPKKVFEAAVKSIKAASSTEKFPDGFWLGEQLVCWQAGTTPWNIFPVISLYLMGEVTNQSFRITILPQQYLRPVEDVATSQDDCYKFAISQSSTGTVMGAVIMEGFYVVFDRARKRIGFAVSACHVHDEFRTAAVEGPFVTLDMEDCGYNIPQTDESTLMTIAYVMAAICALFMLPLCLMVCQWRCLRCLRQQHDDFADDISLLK
Chain of Cathepsin D (P07339 65-412, species assumed): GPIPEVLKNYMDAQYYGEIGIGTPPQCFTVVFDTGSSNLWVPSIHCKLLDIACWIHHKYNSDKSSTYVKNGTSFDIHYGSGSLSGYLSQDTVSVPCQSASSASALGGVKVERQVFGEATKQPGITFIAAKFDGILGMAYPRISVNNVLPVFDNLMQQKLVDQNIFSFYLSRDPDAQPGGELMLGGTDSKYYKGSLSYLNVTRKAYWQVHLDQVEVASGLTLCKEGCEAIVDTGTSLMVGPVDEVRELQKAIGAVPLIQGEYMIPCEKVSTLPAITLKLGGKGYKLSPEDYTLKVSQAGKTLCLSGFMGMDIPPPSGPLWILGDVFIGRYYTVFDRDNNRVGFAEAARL

Structure (SMILES)	Ki (memapsin 1) [µM]	Ki (Cathepsin D) [µM]	IC50 (Aβ production) [µM]	Ki (memapsin 2) [µM]
Cc1csc(COC(=O)N[C@@H](CS(C)(=O)=O)C(=O)N[C@H](Cc2cc(F)cc(F)c2)[C@@H](O)C[C@@H](C)C(=O)N[C@@H](C(=O)NCC(C)C)C(C)C)n1 [Structure 79]	< 0.1	< 0.1	< 6	< 0.1
Cc1nc(COC(=O)N[C@@H](CS(C)(=O)=O)C(=O)N[C@H](CC(C)C)[C@@H](O)C[C@@H](C)C(=O)N[C@@H](C(=O)O)C(C)C)c(C)o1 [Structure 86]	0.1 to 1	> 1	> 100	0.1 to 1
COC(=O)[C@H](NC(=O)[C@H](C)C[C@H](O)[C@@H](CC(C)C)NC(=O)[C@H](CSC)NC(=O)OCc1nc(C)cs1)C(C)C [Structure 88]	> 1	0.1 to 1	< 6	> 1
CSC[C@H](NC(=O)OCc1ccn(C)n1)C(=O)N[C@H](CC(C)C)[C@@H](O)C[C@@H](C)C(=O)N[C@@H](C(=O)NCC(C)C)C(C)C [Structure 93]	0.1 to 1	< 0.1	6 to 100	0.1 to 1
Cc1nc(COC(=O)N[C@@H](CS(C)(=O)=O)C(=O)N[C@H](CC(C)C)[C@@H](O)C[C@@H](C)C(=O)N[C@@H](C(=O)NCC(C)C)C(C)C)c(C)o1 [Structure 94]	0.1 to 1	0.1 to 1	< 6	< 0.1
Cc1coc(COC(=O)N[C@@H](CS(C)(=O)=O)C(=O)N[C@@H](CC(C)C)[C@@H](O)C[C@@H](C)C(=O)N[C@H](C(=O)NCC(C)C)C(C)C)n1 [Structure 95]	> 1	0.1 to 1	< 6	< 0.1
